Assays:
Assay in all cases: Test A post-emergence
Parameters in all cases: key: 0 = no effect, 10 = maximum effect; letter = response symbol
Conditions in all cases: 0.4 kg/ha
cassia = assay type: in vivo, Cassia tora
Summary of the method: (§1)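 Seeds and tubers were treated preemergence in a growth medium with compound in a nonphytotoxic solvent, against untreated controls; emerged plants such as two-leaf barnyardgrass and five-leaf cotton were sprayed postemergence, against solvent-sprayed controls. After sixteen days in a greenhouse, response was rated visually from 0 to 10.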

wild oats = assay type: in vivo, Avena fatua
Summary of the method: as §1

barnyardgrass = assay type: in vivo, Echinochloa crusgalli
Summary of the method: as §1

crabgrass = assay type: in vivo, Digitaria spp.
Excerpt: The activity of these compounds was discovered in a number of greenhouse and field tests. The ratings are based on a numerical scale extending from 0=no effect, to 10=maximum effect. The accompanying descriptive symbols have the following meanings:
Seeds of crabgrass (Digitaria spp.), barnyardgrass (Echinochloa crusgalli), wild oats (Avena fatua), cassia (Cassia tora), morningglory (Ipomoea spp.), cocklebur (Xanthium spp.), sorghum, corn, soybean, rice, wheat and nutsedge tubers (Cyperus rotundus) were planted in a growth medium and treated preemergence with a nonphytotoxic solvent solution of the compounds of Table XII. Other batches of seeds and tubers for all of the foregoing weed and crop plants were planted at the same time as controls. The control plantings were untreated; i.e., neither any compound nor any solvent was applied. At the same time, cotton having five leaves (including cotyledonary ones), bush beans with the third trifoliate leaf expanding, crabgrass with two leaves, barnyardgrass with two leaves, wild oats with two leaves, cassia with three leaves (including cotyledonary ones), morningglory with four leaves (including the cotyledonary ones), cocklebur with four leaves (including the cotyledonary ones), sorghum with four leaves, corn with four leaves, soybean with two cotyledonary leaves, rice with three leaves, wheat with one leaf, and nutsedge with three-five leaves were sprayed with a nonphytotoxic solvent solution of the compounds of Table XII. Other groups of all the same weed and crop plants were sprayed with the same nonphytotoxic solvent so as to provide control plants. Preemergence and postemergence treated plants and controls were maintained in a greenhouse for sixteen days, then all treated plants were compared with their respective controls and rated visually for response to treatment.

nutsedge = assay type: in vivo, Cyperus rotundus
Summary of the method: as §1

rice = assay type: in vivo
Summary of the method: as §1

wheat = assay type: in vivo
Summary of the method: as §1

corn = assay type: in vivo
Summary of the method: as §1

sorghum = assay type: in vivo
Summary of the method: as §1

cocklebur = assay type: in vivo, Xanthium spp.
Summary of the method: as §1

morningglory = assay type: in vivo, Ipomoea spp.
Summary of the method: as §1

bush bean = assay type: in vivo, bush beans
soybean = assay type: in vivo
Summary of the method: as §1

cotton = assay type: in vivo
Summary of the method: as §1

SMILES: COC(=O)c1cc(Cl)c(Cl)cc1S(=O)(=O)NC(=O)Nc1nc(C)cc(OC)n1 [drawing 452]
- response rating (cassia): 2C
- response rating (wild oats): 0
- response rating (barnyardgrass): 7H
- response rating (crabgrass): 2G
- response rating (nutsedge): 6G
- response rating (rice): 2C
- response rating (wheat): 0
- response rating (corn): 2G
- response rating (sorghum): 5G

SMILES: COC(=O)c1cc(Cl)ccc1S(=O)(=O)NC(=O)Nc1nc(C)cc(OC)n1 [drawing 434]
- response rating (cassia): 9C
- response rating (cocklebur): 10C
- response rating (crabgrass): 3G
- response rating (morningglory): 10C
- response rating (rice): 9C
- response rating (corn): 9H

SMILES: COCCc1nc(NC(=O)NS(=O)(=O)c2ccccc2C(=O)OC)nc(OC)n1 [drawing 474]
- response rating (crabgrass): 9C
- response rating (bush bean): 9C
- response rating (morningglory): 10C
- response rating (soybean): 9C
- response rating (wheat): 1C
- response rating (corn): 9C
- response rating (cotton): 9C

SMILES: COC(=O)c1ccccc1S(=O)(=O)NC(=O)Nc1nc(OC)nc(OCC(F)(F)F)n1 [drawing 473]
- response rating (cassia): 10C
- response rating (cocklebur): 10C
- response rating (crabgrass): 3G
- response rating (bush bean): 9C
- response rating (morningglory): 10C
- response rating (corn): 10C
- response rating (cotton): 9C

SMILES: CCOCCSc1cc(C)nc(NC(=O)NS(=O)(=O)c2ccccc2C(=O)OC)n1 [drawing 469]
- response rating (cocklebur): 2C
- response rating (bush bean): 9C
- response rating (nutsedge): 8G
- response rating (rice): 8G
- response rating (wheat): 6G
- response rating (corn): 9H
- response rating (sorghum): 9G

SMILES: COC(=O)c1ccccc1S(=O)(=O)NC(=O)Nc1nc(C)cc(OC)n1 [drawing 413]
- response rating (cassia): 9C
- response rating (wild oats): 9C
- response rating (cocklebur): 9C
- response rating (barnyardgrass): 9C
- response rating (bush bean): 9C
- response rating (morningglory): 10C
- response rating (nutsedge): 9C
- response rating (soybean): 9C
- response rating (wheat): 9C
- response rating (corn): 10C
- response rating (sorghum): 9C
- response rating (cotton): 9C

SMILES: COc1cc(C)nc(NC(=O)NS(=O)(=O)c2ccccc2C(=O)SCc2ccccc2)n1 [drawing 475]
- response rating (cassia): 9C
- response rating (cocklebur): 9C
- response rating (barnyardgrass): 9C
- response rating (bush bean): 9C
- response rating (morningglory): 10C
- response rating (soybean): 8C
- response rating (corn): 9C
- response rating (cotton): 9C

SMILES: COc1nc(C)nc(NC(=O)NS(=O)(=O)c2ccccc2C(=O)OCCCl)n1 [drawing 426]
- response rating (cassia): 9C
- response rating (wild oats): 4G
- response rating (cocklebur): 10C
- response rating (bush bean): 9C
- response rating (morningglory): 10C
- response rating (nutsedge): 9C
- response rating (wheat): 1C
- response rating (corn): 9C
- response rating (cotton): 9C

SMILES: COc1cc(OC)nc(NC(=O)NS(=O)(=O)c2ccccc2C(=O)OCCCl)n1 [drawing 420]
- response rating (cassia): 9C
- response rating (cocklebur): 10C
- response rating (barnyardgrass): 10C
- response rating (bush bean): 9C
- response rating (morningglory): 10C
- response rating (nutsedge): 9C
- response rating (soybean): 10C
- response rating (sorghum): 10C
- response rating (cotton): 9C

SMILES: COc1cc(C)nc(NC(=O)NS(=O)(=O)c2ccccc2C(=O)OC(C)CCl)n1 (centres unmarked) [drawing 478]
- response rating (cassia): 10C
- response rating (wild oats): 8C
- response rating (cocklebur): 9C
- response rating (barnyardgrass): 10C
- response rating (crabgrass): 9C
- response rating (morningglory): 10C
- response rating (nutsedge): 9C
- response rating (wheat): 8C
- response rating (corn): 9C
- response rating (sorghum): 9C
- response rating (cotton): 9C

SMILES: CCOCCOC(=O)c1ccccc1S(=O)(=O)NC(=O)Nc1nc(Cl)cc(Cl)n1 [drawing 453]
- response rating (cassia): 0
- response rating (wild oats): 1C
- response rating (cocklebur): 5C
- response rating (crabgrass): 2C
- response rating (morningglory): 0
- response rating (nutsedge): 0
- response rating (wheat): 2G
- response rating (cotton): 1C

SMILES: COc1cc(C)nc(NC(=O)NS(=O)(=O)c2ccccc2C(=O)OCCOc2ccccc2)n1 [drawing 461]
- response rating (cocklebur): 10C
- response rating (barnyardgrass): 9C
- response rating (crabgrass): 4G
- response rating (bush bean): 9C
- response rating (morningglory): 9C
- response rating (nutsedge): 8G
- response rating (soybean): 9C
- response rating (sorghum): 8G
- response rating (cotton): 9C

SMILES: COc1cc(C)nc(NC(=O)NS(=O)(=O)c2ccccc2C(=O)SC)n1 [drawing 477]
- response rating (cassia): 9C
- response rating (cocklebur): 9C
- response rating (barnyardgrass): 9C
- response rating (bush bean): 9C
- response rating (morningglory): 9C
- response rating (soybean): 9C
- response rating (corn): 9C
- response rating (sorghum): 9C
- response rating (cotton): 9C

SMILES: COc1nc(NC(=O)NS(=O)(=O)c2ccccc2C(=O)OC2CCCCC2)nc(OC)n1 [drawing 432]
- response rating (cassia): 5C
- response rating (wild oats): 0
- response rating (crabgrass): 0
- response rating (nutsedge): 2G
- response rating (rice): 2G
- response rating (wheat): 0
- response rating (corn): 6H
- response rating (sorghum): 3G

SMILES: COC(=O)c1cc(F)ccc1S(=O)(=O)NC(=O)Nc1nc(C)nc(OC)n1 [drawing 450]
- response rating (cassia): 9C
- response rating (wild oats): 0
- response rating (crabgrass): 9C
- response rating (bush bean): 9C
- response rating (morningglory): 9C
- response rating (rice): 9C
- response rating (wheat): 0
- response rating (corn): 9C

SMILES: C=CCCC(C)OC(=O)c1ccccc1S(=O)(=O)NC(=O)Nc1nc(C)nc(OC)n1 (centres unmarked) [drawing 455]
- response rating (cassia): 9C
- response rating (cocklebur): 10C
- response rating (crabgrass): 9C
- response rating (bush bean): 9C
- response rating (morningglory): 10C
- response rating (nutsedge): 7G
- response rating (soybean): 9C
- response rating (corn): 9C
- response rating (cotton): 9C

SMILES: COc1cc(C)nc(NC(=O)NS(=O)(=O)c2ccccc2C(=O)NCc2ccccc2)n1 [drawing 464]
- response rating (wild oats): 9C
- response rating (cocklebur): 9C
- response rating (barnyardgrass): 9C
- response rating (bush bean): 9C
- response rating (morningglory): 10C
- response rating (soybean): 9C
- response rating (wheat): 9C
- response rating (corn): 10C
- response rating (sorghum): 9C
- response rating (cotton): 9C

SMILES: CNC(=O)c1ccccc1S(=O)(=O)NC(=O)Nc1nc(C)cc(OC)n1 [drawing 466]
- response rating (cassia): 9C
- response rating (wild oats): 9C
- response rating (cocklebur): 9C
- response rating (barnyardgrass): 9C
- response rating (crabgrass): 9C
- response rating (bush bean): 9C
- response rating (morningglory): 10C
- response rating (nutsedge): 10C
- response rating (soybean): 9C
- response rating (wheat): 9C
- response rating (corn): 10C
- response rating (sorghum): 10C
- response rating (cotton): 10C

SMILES: CCCCCCOC(=O)c1ccccc1S(=O)(=O)NC(=O)Nc1nc(C)cc(COC)n1 [drawing 471]
- response rating (cassia): 1C
- response rating (wild oats): 0
- response rating (barnyardgrass): 3C
- response rating (crabgrass): 0
- response rating (morningglory): 2C
- response rating (soybean): 2C
- response rating (wheat): 0
- response rating (cotton): 2C

SMILES: COc1cc(C)nc(NC(=O)NS(=O)(=O)c2ccccc2C(=O)OCCCl)n1 [drawing 421]
- response rating (cassia): 10C
- response rating (cocklebur): 10C
- response rating (barnyardgrass): 10C
- response rating (bush bean): 9C
- response rating (morningglory): 10C
- response rating (nutsedge): 10C
- response rating (corn): 10C
- response rating (sorghum): 9C
- response rating (cotton): 9C

Reference: US4383113A, “Agricultural sulfonamides” (E. I. Du Pont de Nemours and Company, priority 1981, dated 1983)
